In ChEMBL document CHEMBL5360656, “Structure-Based Design of Transport-Specific Multitargeted One-Carbon Metabolism Inhibitors in Cytosol and Mitochondria” (J Med Chem, 2023):
Calls of active or inactive are those of the source. The calls are words filed in the database; no cut-off is given here.

Assays:
KB = assay: Antitumor activity against human KB cells assessed as inhibition of cell growth measured upto 96 hrs in presence of adenosine by Cell titer blue assay; assay type: functional, cell-based
CHO = assay: cells; conditions: Cricetulus griseus, 96 h

| Compound | Activity (KB) | IC50 (CHO) [nM] |
| --- | --- | --- |
| Nc1nc2[nH]c(CCCc3ccc(C(=O)N[C@@H](CCC(=O)O)C(=O)O)s3)cc2c(=O)[nH]1 | inactive |  |
| Nc1nc2[nH]cc(CCc3ccc(C(=O)N[C@@H](CCC(=O)O)C(=O)O)cc3)c2c(=O)[nH]1 [PEMETREXED] |  | 60 |
